The subject of one data set is MV4-11 cells. Briefly: MV4-11 Cell Cytotoxicity Assay (CellTiter-Blue, 72 h). The following applies: MV-4-11 cells. The data set is classed as cell-based, human. The method, boiled down: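 Viability read-out: CellTiter-Blue, 1 h, fluorescence 560/590 nm. Preceded by 72 h exposure (37° C, 5% CO2) to twofold dilution series from 50 μM, triplicate, 0.5% DMSO vehicle, applied 24 h after plating.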

Data set [1] relates to normal human fibroblast (NHF) cells. As to the kind of experiment: NHF Cell Cytotoxicity Assay (CellTiter-Blue, 72 h), off-target effects. The data set is classed as cell-based. The following applies: pooled NHF cells. As to the method:
In some embodiments, the off-target effects of the compounds are evaluated in healthy human cells, such as in a normal human fibroblast (NHF) cell cytotoxicity assay.
Cell viability was examined following treatment at various concentrations of inhibitor (0.097656-50 μM) using a cell Titer-Blue cell viability assay. 1×10^4 normal human fibroblast cells per well were plated in 96-well assay plates in culture medium. All cells are grown in DMEM, IMDM and RPMI-1640 were supplemented with 10% FBS. After 24 hours, test compounds and vehicle controls are added to appropriate wells so the final volume was 100 μl in each well. The cells are cultured for the desired test exposure period (72 hours) at 37° C. and 5% CO2. The assay plates are removed from 37° C. incubator and 20 μL/well of CellTiter-Blue® Reagent is added. The plates are incubated using standard cell culture conditions for 1-4 hours and the plates are shaken for 10 seconds and record fluorescence at 560/590nm. For each sample well, value is normalized between the DMSO control and the highest concentration in case of plateau, and converted into a percentage. In the absence of plateau, minimum lecture is obtained from a different sample within the same experiment. For each concentration, the four replicates are averaged and standard deviation calculated. Data is fitted to a log(inhibitor) vs response curve with variable slope model using Microsoft Excel, obtaining IC50 and Hill slope variables.
A person skilled in the art would appreciate that a higher IC50 value in this NHF assay can indicate lower off-target effects.

The subject of another data set is glutathione (GSH). As to the kind of experiment: Reactivity Profiling with Glutathione (GSH), half-life by HPLC. The following applies: 5 mM glutathione (GSH) in IMDM with 10% FBS.

Consider 18 compounds from patent US20230159445A1, “STAT INHIBITORY COMPOUNDS AND COMPOSITIONS” (JANPIX LIMITED, priority 2020, published 2023).

What is called IC50 is the concentration that gives 50% inhibition. Read a low IC50 as greater potency. With `CN(C)c1cc(C(=O)O)ccc1N(Cc1cc(C2CC2)cc(N2CCCC2)c1)C(=O)CN(Cc1ccc(F)cc1Cl)S(=O)(=O)c1c(F)c(F)c(F)c(F)c1F` [Compound 1212, 4-(2-(N-(2-chloro-4-fluorobenzyl)-(2,3,4,5,6-pentafluorophenyl)sulfon-amido)-N-(3-cyclopropyl-5-(pyrrolidin-1-yl)benzyl)acetamido)-3-(dimethylamino) benzoic acid], the IC50 is 316 to 1000 nM in the data set with MV4-11 cells (Homo sapiens, MV4-11) and 10 to 20 µM in data set [1] (Homo sapiens, Fibroblast).

One may read the half-life as how long it takes for the measured level to halve. A high value points to slow loss. In data set [1] (Homo sapiens, Fibroblast), `O=C(O)c1ccc(N(Cc2cc(C3CC3)cc(C3CC3)c2)C(=O)CN(Cc2ccc(F)cc2Cl)S(=O)(=O)c2c(F)c(F)c(F)c(F)c2F)c(OCC2COC2)c1` [Compound 1257, 4-(2-(N-(2-chloro-4-fluorobenzyl)-(2,3,4,5,6-pentafluorophenyl)sulfon-amido)-N-(3,5-dicyclopropylbenzyl)acetamido)-3-(oxetan-3-ylmethoxy)benzoic acid] showed an IC50 of 10 to 20 µM. In the data set on glutathione (GSH), the half-life at 25 μM lay in the range of 0.00167 to 2.37 h. On the same counts, the results for `CC(C)COc1cc(C(=O)O)ccc1N(Cc1cc(C2CC2)cc(C2CC2)c1)C(=O)CN(Cc1ccc(F)cc1Cl)S(=O)(=O)c1c(F)c(F)c(F)c(F)c1F` [Compound 1255, 4-(2-(N-(2-chloro-4-fluorobenzyl)-(2,3,4,5,6-pentafluorophenyl)sulfon-amido)-N-(3,5-dicyclopropylbenzyl)acetamido)-3-isobutoxybenzoic acid] are 10 to 20 µM and 9.23 to 1670 h. Take `Cc1cc(C(=O)O)cc(C)c1N(Cc1cc(C2CC2)cc(C2CC2)c1)C(=O)CN(Cc1ccc(F)cc1Cl)S(=O)(=O)c1c(F)c(F)c(F)c(F)c1F` [Compound 1188, 4-(2-(N-(2-chloro-4-fluorobenzyl)-(2,3,4,5,6-pentafluorophenyl)sulfon-amido)-N-(3,5-dicyclopropylbenzyl)acetamido)-3,5-dimethylbenzoic acid]: the IC50 in the data set with MV4-11 cells (Homo sapiens, MV4-11) lay within 316 to 1000 nM; in data set [1] (Homo sapiens, Fibroblast) it was 0.001 to 10 µM. On the same counts, the results for `O=C(O)c1ccc(N(Cc2cc(C3CC3)cc(N3CCCC3)c2)C(=O)CN(Cc2ccc(F)cc2Cl)S(=O)(=O)c2c(F)c(F)c(F)c(F)c2F)c(OC2CCCC2)c1` [Compound 1239, 4-(2-(N-(2-chloro-4-fluorobenzyl)-(2,3,4,5,6-pentafluorophenyl)sulfon-amido)-N-(3-cyclopropyl-5-(pyrrolidin-1-yl)benzyl)acetamido)-3-(cyclopentyloxy)benzoic acid] are 0.01 to 316 nM and 20 to 30 µM. Consider `Cc1cc(C(=O)O)cc(C)c1N(Cc1cc(C2CC2)cc(C2CC2)c1)C(=O)CN(Cc1c(F)c(F)c(F)c(F)c1F)S(=O)(=O)c1c(F)c(F)c(F)c(F)c1F` [Compound 1204, 4-(N-(3,5-dicyclopropylbenzyl)-2-(N-((perfluorophenyl)methyl)-(2,3,4,5,6-pentafluoro-phenyl)sulfonamido)acetamido)-3,5-dimethylbenzoic acid], for which the IC50 with MV4-11 cells (Homo sapiens, MV4-11) lay within 316 to 1000 nM; in data set [1] (Homo sapiens, Fibroblast), 0.001 to 10 µM. The compound `COCCOc1cc(C(=O)O)ccc1N(Cc1cc(C2CC2)cc(C2CC2)c1)C(=O)CN(Cc1ccc(F)cc1Cl)S(=O)(=O)c1c(F)c(F)c(F)c(F)c1F` [Compound 1245, 4-(2-(N-(2-chloro-4-fluorobenzyl)-(2,3,4,5,6-pentafluorophenyl)sulfon-amido)-N-(3,5-dicyclopropylbenzyl)acetamido)-3-(2-methoxyethoxy)benzoic acid] had an IC50 in data set [1] (Homo sapiens, Fibroblast) of 0.001 to 10 µM. In the data set with glutathione (GSH), the half-life at 25 μM fell in the range of 2.37 to 4.12 h.

In data set [1] (Homo sapiens, Fibroblast), `O=C(O)c1ccc(N(Cc2cc(C3CC3)cc(C3CC3)c2)C(=O)CN(Cc2ccc(F)cc2Cl)S(=O)(=O)c2c(F)c(F)c(F)c(F)c2F)c(OC2CCSC2)c1` (stereo not drawn) [Compound 1264, 4-(2-(N-(2-chloro-4-fluorobenzyl)-(2,3,4,5,6-pentafluorophenyl)sulfon-amido)-N-(3,5-dicyclopropylbenzyl)acetamido)-3-((tetrahydrothiophen-3-yl)oxy)benzoic acid] yielded an IC50 of 10 to 20 µM. Turning to `CCOc1cc(C(=O)O)ccc1N(Cc1cc(C2CC2)cc(C2CC2)c1)C(=O)CN(Cc1ccc(F)cc1C#N)S(=O)(=O)c1c(F)c(F)c(F)c(F)c1F` [Compound 1275, 4-(2-((N-(2-cyano-4-fluorobenzyl)-2,3,4,5,6-pentafluorophenyl)sulfonamido)-N-(3,5-dicyclopropylbenzyl)acetamido)-3-ethoxybenzoic acid], the concentration for half-maximal inhibition (IC50) in the data set on MV4-11 cells (Homo sapiens, MV4-11) lay in the range of 0.01 to 316 nM; in data set [1] (Homo sapiens, Fibroblast) it was 0.001 to 10 µM. `O=C(O)c1ccc(N(Cc2cc(C3CC3)cc(C3CC3)c2)C(=O)CN(Cc2ccc(F)cc2Cl)S(=O)(=O)c2c(F)c(F)c(F)c(F)c2F)c(OC2CCOCC2)c1` [Compound 1230, 4-(2-(N-(2-chloro-4-fluorobenzyl)-(2,3,4,5,6-pentafluorophenyl)sulfon-amido)-N-(3,5-dicyclopropylbenzyl)acetamido)-3-((tetrahydro-2H-pyran-4-yl)oxy)benzoic acid] showed an IC50 in data set [1] (Homo sapiens, Fibroblast) of 0.001 to 10 µM. The compound also displayed a half-life at 25 μM in the data set with glutathione (GSH) of 2.37 to 4.12 h. For `O=C(O)c1ccc(N(Cc2cc(C3CC3)cc(C3CC3)c2)C(=O)CN(Cc2ccc(F)cc2C(F)(F)F)S(=O)(=O)c2c(F)c(F)c(F)c(F)c2F)c(OC2CC2)c1` [Compound 1223, 3-cyclopropoxy-4-(N-(3,5-dicyclopropylbenzyl)-2-(N-(4-fluoro-2-(trifluoromethyl)benzyl)-(2,3,4,5,6-pentafluoro-phenyl)sulfonamido)acetamido)benzoic acid], in that order: 20 to 30 µM and 4.12 to 9.23 h. On to `Cc1cc(C(=O)O)ccc1N(Cc1cc(C2CC2)cc(C(C)(C)C)c1)C(=O)CN(Cc1ccc(F)cc1Cl)S(=O)(=O)c1c(F)c(F)c(F)c(F)c1F` [Compound 1250, 4-(N-(3-(tert-butyl)-5-cyclopropylbenzyl)-2-(N-(2-chloro-4-fluorobenzyl)-(2,3,4,5,6-pentafluorophenyl)sulfon-amido)acetamido)-3-methylbenzoic acid], for which the half-inhibitory concentration (IC50) in the data set on MV4-11 cells (Homo sapiens, MV4-11) is 0.01 to 316 nM; in data set [1] (Homo sapiens, Fibroblast), 0.001 to 10 µM.

Turning to `CC(C)(C)c1cc(CN(C(=O)CN(Cc2ccc(F)cc2Cl)S(=O)(=O)c2c(F)c(F)c(F)c(F)c2F)c2ccc(C(=O)O)cc2O[C@@H]2CCOC2)cc(C2CC2)c1` [Compound 1249, (R)-4-(N-(3-(tert-butyl)-5-cyclopropylbenzyl)-2-(N-(2-chloro-4-fluorobenzyl)-(2,3,4,5,6-pentafluorophenyl)sulfon-amido)acetamido)-3-((tetrahydrofuran-3-yl)oxy)benzoic acid], the IC50 in data set [1] (Homo sapiens, Fibroblast) was 10 to 20 µM. Moreover, the half-life at 25 μM in the data set with glutathione (GSH) lay within 2.37 to 4.12 h. Consider `CC(C)c1cc(C(=O)O)ccc1N(Cc1cc(C2CC2)cc(C2CC2)c1)C(=O)CN(Cc1ccc(F)cc1Cl)S(=O)(=O)c1c(F)c(F)c(F)c(F)c1F` [Compound 1244, 4-(2-(N-(2-chloro-4-fluorobenzyl)-(2,3,4,5,6-pentafluorophenyl)sulfon-amido)-N-(3,5-dicyclopropylbenzyl)acetamido)-3-isopropylbenzoic acid], for which, in data set [1] (Homo sapiens, Fibroblast), the IC50 was in the range of 10 to 20 µM. As for `O=C(O)c1ccc(N(Cc2cc(C3CC3)cc(C3CC3)c2)C(=O)CN(Cc2ccc(F)cc2Cl)S(=O)(=O)c2c(F)c(F)c(F)c(F)c2F)c(N2CCCC2)c1` [Compound 1240, 4-(2-(N-(2-chloro-4-fluorobenzyl)-(2,3,4,5,6-pentafluorophenyl)sulfon-amido)-N-(3,5-dicyclopropylbenzyl)acetamido)-3-(pyrrolidin-1-yl)benzoic acid], the concentration for half-maximal inhibition (IC50) was 0.01 to 316 nM in the data set on MV4-11 cells (Homo sapiens, MV4-11) and 10 to 20 µM in data set [1] (Homo sapiens, Fibroblast).

On to `CC(C)(C)c1cc(CN(C(=O)CN(Cc2ccc(F)cc2Cl)S(=O)(=O)c2c(F)c(F)c(F)c(F)c2F)c2ccc(C(=O)O)cc2O[C@H]2CCOC2)cc(C2CC2)c1` [Compound 1248, (S)-4-(N-(3-(tert-butyl)-5-cyclopropylbenzyl)-2-(N-(2-chloro-4-fluorobenzyl)-(2,3,4,5,6-pentafluorophenyl)sulfon-amido)acetamido)-3-((tetrahydrofuran-3-yl)oxy)benzoic acid], for which, in data set [1] (Homo sapiens, Fibroblast), the IC50 was in the range of 0.001 to 10 µM. In the data set with glutathione (GSH), this compound displayed a half-life at 25 μM of 2.37 to 4.12 h. With `CC(C)(C)c1cc(CN(C(=O)CN(Cc2ccccc2C#N)S(=O)(=O)c2c(F)c(F)c(F)c(F)c2F)c2ccc(C(=O)O)cc2OC2CC2)cc(C2CC2)c1` [Compound 1224, 4-(N-(3-(tert-butyl)-5-cyclopropylbenzyl)-2-(N-(2-cyanobenzyl)-(2,3,4,5,6-pentafluorophenyl)sulfon-amido)acetamido)-3-cyclopropoxybenzoic acid], in data set [1] (Homo sapiens, Fibroblast), the IC50 lay in the range of 0.001 to 10 µM. For the compound `CC(C)(C)c1cc(CN(C(=O)CN(Cc2ccc(F)cc2Cl)S(=O)(=O)c2c(F)c(F)c(F)c(F)c2F)c2ccc(C(=O)O)cc2C2CC2)cc(C2CC2)c1` [Compound 1193, 4-(N-(3-(tert-butyl)-5-cyclopropylbenzyl)-2-(N-(2-chloro-4-fluorobenzyl)-(2,3,4,5,6-pentafluorophenyl)sulfon-amido)acetamido)-3-cyclopropylbenzoic acid], the concentration for half-maximal inhibition (IC50) in the data set with MV4-11 cells is 0.01 to 316 nM; in data set [1], 10 to 20 µM.
